According to US20250026759A1 (Merck Sharp & Dohme LLC, priority 2023, published 2025):

System: PBMCs infected with VSV-G pseudotyped HIV virus (VSV-G/pNLG1-P2A-ΔEnv)
Experiment: cells
Assay type: cell-based, human
Details: Homo sapiens, PBMC, read-out: TACK EC50

`Cc1cc[nH]c1C(=O)NCc1cc2c(cc1F)[C@@](C#CC1CC1)(C(F)(F)F)NC(=O)N2` [Example 86, (S)-N-((4-(cyclopropylethynyl)-6-fluoro-2-oxo-4-(trifluoromethyl)-1,2,3,4-tetrahydroquinazolin-7-yl)methyl)-3-methyl-1H-pyrrole-2-carboxamide] showed an EC50 of 15.7 nM.
With `N#Cc1c[nH]c(C(=O)NCc2cc3c(cc2F)[C@@](C#CC2CC2)(C(F)(F)F)NC(=O)N3)c1` [Example 88, (S)-4-cyano-N-((4-(cyclopropylethynyl)-6-fluoro-2-oxo-4-(trifluoromethyl)-1,2,3,4-tetrahydroquinazolin-7-yl)methyl)-1H-pyrrole-2-carboxamide] the EC50 was 25.4 nM.
For `O=C1Nc2cc(CNC(=O)c3nccs3)c(F)cc2[C@@](C#CC2CC2)(C(F)(F)F)N1` [Example 89, (S)-N-((4-(cyclopropylethynyl)-6-fluoro-2-oxo-4-(trifluoromethyl)-1,2,3,4-tetrahydroquinazolin-7-yl)methyl)thiazole-2-carboxamide], the EC50 was 95 nM.
With `CC(F)(F)[C@@]1(C#CC2CC2)NC(=O)Nc2cc(Cn3cc4ccccc4n3)c(F)cc21` [Example 90, (S)-7-((2H-indazol-2-yl)methyl)-4-(cyclopropylethynyl)-4-(1,1-difluoroethyl)-6-fluoro-3,4-dihydroquinazolin-2(1H)-one] the EC50 was 9.4 nM.
For `CC(F)(F)[C@@]1(C#CC2CC2)NC(=O)Nc2cc(Cn3ncc4ccccc43)c(F)cc21` [Example 91, (S)-7-((1H-indazol-1-yl)methyl)-4-(cyclopropylethynyl)-4-(1,1-difluoroethyl)-6-fluoro-3,4-dihydroquinazolin-2(1H)-one], the EC50 was 27.3 nM.
For `CC(F)(F)[C@@]1(C#CC2CC2)NC(=O)Nc2cc(Cn3nnc4ccccc43)c(F)cc21` [Example 92, (S)-7-((1H-benzo[d][1,2,3]triazol-1-yl)methyl)-4-(cyclopropylethynyl)-4-(1,1-difluoroethyl)-6-fluoro-3,4-dihydroquinazolin-2(1H)-one], the EC50 was 10.6 nM.
For `Cc1nn(Cc2cc3c(cc2F)[C@@](C#CC2CC2)(C(C)(F)F)NC(=O)N3)c2ccccc12` [Example 93, (S)-4-(cyclopropylethynyl)-4-(1,1-difluoroethyl)-6-fluoro-7-((3-methyl-1H-indazol-1-yl)methyl)-3,4-dihydroquinazolin-2(1H)-one], the EC50 was 28.5 nM.
`CC(F)(F)[C@@]1(C#CC2CC2)NC(=O)Nc2cc(Cn3cnc4ccccc43)c(F)cc21` [Example 94, (S)-7-((1H-benzo[d]imidazol-1-yl)methyl)-4-(cyclopropylethynyl)-4-(1,1-difluoroethyl)-6-fluoro-3,4-dihydroquinazolin-2(1H)-one] was tested, and the EC50 was 44.2 nM.
With `COc1nn(Cc2cc3c(cc2F)[C@@](C#CC2CC2)(C(C)(F)F)NC(=O)N3)cc1Cl` [Example 95, (S)-7-((4-chloro-3-methoxy-1H-pyrazol-1-yl)methyl)-4-(cyclopropylethynyl)-4-(1,1-difluoroethyl)-6-fluoro-3,4-dihydroquinazolin-2(1H)-one] the EC50 was 24.1 nM.
For `O=C1Nc2cc(CN3Cc4ccccc4C3=O)c(F)cc2[C@@](C#CC2CC2)(C(F)(F)F)N1` [Example 96, (S)-4-(cyclopropylethynyl)-6-fluoro-7-((1-oxoisoindolin-2-yl)methyl)-4-(trifluoromethyl)-3,4-dihydroquinazolin-2(1H)-one], the EC50 was 45.1 nM.
`COc1ccc(-c2ccn(Cc3cc4c(cc3F)[C@@](C#CC3CC3)(C(C)(F)F)NC(=O)N4)n2)cc1` [Example 97, (S)-4-(cyclopropylethynyl)-4-(1,1-difluoroethyl)-6-fluoro-7-((3-(4-methoxyphenyl)-1H-pyrazol-1-yl)methyl)-3,4-dihydroquinazolin-2(1H)-one] showed an EC50 of 45.3 nM.
`O=C1Nc2cc(Cn3ccc4c3CCNC4=O)c(F)cc2[C@@](C#CC2CC2)(C(F)(F)F)N1` [Example 98, (S)-4-(cyclopropylethynyl)-6-fluoro-7-((4-oxo-4,5,6,7-tetrahydro-1H-pyrrolo[3,2-c]pyridin-1-yl)methyl)-4-(trifluoromethyl)-3,4-dihydroquinazolin-2(1H)-one] showed an EC50 of 65.4 nM.
`COc1cn(Cc2cc3c(cc2F)[C@@](C#CC2CC2)(C(C)(F)F)NC(=O)N3)nc1N` [Example 99, (S)-7-((3-amino-4-methoxy-1H-pyrazol-1-yl)methyl)-4-(cyclopropylethynyl)-4-(1,1-difluoroethyl)-6-fluoro-3,4-dihydroquinazolin-2(1H)-one] showed an EC50 of 13.1 nM.
Work on `NC(=O)c1nccn1Cc1cc2c(cc1F)[C@@](C#CC1CC1)(C(F)(F)F)NC(=O)N2` [Example 100, (S)-1-((4-(cyclopropylethynyl)-6-fluoro-2-oxo-4-(trifluoromethyl)-1,2,3,4-tetrahydroquinazolin-7-yl)methyl)-1H-imidazole-2-carboxamide] yielded an EC50 of 13.6 nM.
In the case of `Cc1ccn(Cc2cc3c(cc2F)[C@@](C#CC2CC2)(C(F)(F)F)NC(=O)N3)n1` [Example 101, (S)-4-(cyclopropylethynyl)-6-fluoro-7-((3-methyl-1H-pyrazol-1-yl)methyl)-4-(trifluoromethyl)-3,4-dihydroquinazolin-2(1H)-one], the EC50 is reported as 13.8 nM.
With `CC(F)(F)[C@@]1(C#CC2CC2)NC(=O)Nc2cc(Cn3ccc(C=O)n3)c(F)cc21` [Example 102, (S)-1-((4-(cyclopropylethynyl)-4-(1,1-difluoroethyl)-6-fluoro-2-oxo-1,2,3,4-tetrahydroquinazolin-7-yl)methyl)-1H-pyrazole-3-carbaldehyde] the EC50 was 26.8 nM.
`CC(F)(F)[C@@]1(C#CC2CC2)NC(=O)Nc2cc(Cn3cnc(N)n3)c(F)cc21` [Example 106, (S)-7-((3-amino-1H-1,2,4-triazol-1-yl)methyl)-4-(cyclopropylethynyl)-4-(1,1-difluoroethyl)-6-fluoro-3,4-dihydroquinazolin-2(1H)-one] gave an EC50 of 16.8 nM.
Work on `Cc1nn(C)c(=O)n1Cc1cc2c(cc1F)[C@@](C#CC1CC1)(C(C)(F)F)NC(=O)N2` [Example 108, (S)-4-(cyclopropylethynyl)-4-(1,1-difluoroethyl)-7-((1,3-dimethyl-5-oxo-1,5-dihydro-4H-1,2,4-triazol-4-yl)methyl)-6-fluoro-3,4-dihydroquinazolin-2(1H)-one] yielded an EC50 of 18.3 nM.
Work on `CC(F)(F)[C@@]1(C#CC2CC2)NC(=O)Nc2cc(Cn3nc[nH]c3=O)c(F)cc21` [Example 109, (S)-4-(cyclopropylethynyl)-4-(1,1-difluoroethyl)-6-fluoro-7-((5-oxo-4,5-dihydro-1H-1,2,4-triazol-1-yl)methyl)-3,4-dihydroquinazolin-2(1H)-one] yielded an EC50 of 20.9 nM.
For `CN1CC(=O)N(Cc2cc3c(cc2F)[C@@](C#CC2CC2)(C(C)(F)F)NC(=O)N3)C1=O` [Example 110, (S)-3-((4-(cyclopropylethynyl)-4-(1,1-difluoroethyl)-6-fluoro-2-oxo-1,2,3,4-tetrahydroquinazolin-7-yl)methyl)-1-methylimidazolidine-2,4-dione], the EC50 was 43.9 nM.
`CN(Cc1cc2c(cc1F)[C@@](C#CC1CC1)(C(C)(F)F)NC(=O)N2)c1cc[nH]n1` [Example 111, (S)-4-(cyclopropylethynyl)-4-(1,1-difluoroethyl)-6-fluoro-7-((methyl(1H-pyrazol-3-yl)amino)methyl)-3,4-dihydroquinazolin-2(1H)-one] was tested, and the EC50 was 103 nM.
